The text below walks through data of patent US20250195629A1, “SITE-SPECIFIC BRAIN THERAPEUTICS” (William Marsh Rice University, priority 2023, published 2025).

The experiment concerns mice. Nature of the experiment: Weekly repeated RAID open field test over three weeks. In kind it is in vivo, mouse. From the text: FIG. 15 includes data related to protein delivery and behavioral testing protocol repeated weekly over a course of three weeks. FIG. 15a illustrates weekly RAID-induced behavioral modulation including a first counterclockwise rotations graph measured in the open field test before and after administration of L-DOPA. FIG. 15b illustrates weekly RAID-induced behavioral modulation including a second counterclockwise rotations graph measured in the open field test before and after administration of L-DOPA. FIG. 15c illustrates weekly RAID-induced behavioral modulation including a first clockwise rotations graph measured in the open field test before and after administration of L-DOPA. FIG. 15d illustrates weekly RAID-induced behavioral modulation including a second clockwise rotations graph measured in the open field test before and after administration of L-DOPA. Data is presented as mean±s.e.m. n=7 mice for FUS alone group and n=14, 13, and 11 mice for the FUS+mAADC-IKVAV (SEQ ID NO: 23) group in weeks 1, 2, and 3, respectively; *P<0.05, **P<0.01, ns (not significant), using Two-way ANOVA with Sidak's multiple comparison test.
Locomotor behavior test—Two groups of mice underwent FUS-BBBO targeting two sites at left striatum immediately after intravenous injection of recombinant protein AADC-IKVAV (SEQ ID NO: 23) (n=14 mice for FUS+AADC-IKVAV group, 20 mg/mL, 250 mg/kg) or equivalent volume of PBS buffer (n=11 mice for FUS alone group). Another group without FUS-BBBO procedure served as wild type control (n=12 mice for WT group). After 46 h, the first session of behavioral test was performed in a custom-made non-transparent open field box (30.5 cm×30.5 cm) as a baseline. Each mouse was individually placed into the apparatus center with a light intensity and background noise at ˜320 lux and 46 dB (400 Hz peak), respectively. After a habituation period of 5 min, the locomotor activity of a freely-moving mouse was recorded for 15 min by a video tracking system (Stoelting Co.) consisting of an overhead camera connected to a computer with Any-Maze software. […]

As for `N[C@@H](Cc1ccc(O)c(O)c1)C(=O)O` [L-DOPA, reference compound], the “reduction in clockwise rotations after L-DOPA” value (week 1, FUS-alone group) was determined as 53±18%. Moreover, under “week 1, control mice receiving FUS alone”, the “reduction in counter-clockwise (ipsilateral) rotations after L-DOPA” value is given as “not observed”. In addition, the “clockwise rotations after L-DOPA” value (week two, FUS-alone control group) is given as “no significant effects”.
